“Also recorded” adds a separate entry of the source.

Data set [1] deals with T1, MCL-1 (Homo sapiens, UniProt Q07820).
T1 construct: monitoring of cellular MCL-1 levels by western blot of lysates; endogenous in cells; host or cells: A375P melanoma cells
The data set can be described thus: MCL-1 levels by western blot in A375P melanoma cells. The conditions noted are these: 10 μM, western blot over time. In kind it is cell-based. From the text: BIM-C-terminal degron is #IWIAQELRXIGDXFNAYYARR% (SEQ ID NO: 134; #=N-term Ac; %=Lys-degron (see FIG. 3 for the structure of Lys-degron)).
A stapled peptide helix-degron chimeric peptide (FIG. 1) modeled after the pro-apoptotic BIM BH3 domain with an incorporated degron (e.g., Lys-degron, FIG. 2-4) was applied to A375P melanoma cells that express such anti-apoptotic BCL-2 family proteins as MCL-1, which promotes cancer cell survival and chemoresistance.
On the technique in general: A western blot detects proteins with antibodies after separation by electrophoresis.

For data set [2], the target named is T2, Cop1 (Homo sapiens, UniProt Q8NHY2). The data set is described as follows: Cop1-mediated degradation of Myc-tagged MDM2 p60 chimera constructs expressed in 293T cells. Type of data set: cell-based. The conditions noted are these: native GFDVPD replaced by the sequence; Cop1-expressing 293T cells. The arrangement: Cop1-expressing human embryonic kidney 293T cells; endogenous in cells; host or cells: 293T (human embryonic kidney). From the text:
The native peptide sequence GFDVPD (SEQ ID NO: 26) within MDM2 is replaced by the sequences indicated (lane 3: SEQ ID NO:27; lane 4: SEQ ID NO:28; lane 5: SEQ ID NO:29; and lane 6: SEQ ID NO:30). […] Lower panel: Cop1 loading control.
(§1) (1) Direct genetic modification: Replacement of natural protein residues in structurally disordered regions with derivatives of the sequence DQIVPEY (SEQ ID NO: 25) can cause the chimera proteins to be degraded by Cop1. For example, replacement of the C-terminal sequence GFDVPD (SEQ ID NO: 26) of the p60 isoform of the protein HDM2 with the Trib1-derived sequence DQIVPD (SEQ ID NO: 30) causes Cop1-mediated degradation of the mutant protein when exogenously expressed in Cop1-expressing human embryonic kidney 293T cells (FIG. 13).

Data set [3] deals with T2, Cop1. The data set can be described thus: Co-immunoprecipitation of Myc-tagged MDM2 p60 mutant constructs with Cop1 from 293T cells. The arrangement: Cop1-expressing human embryonic kidney 293T cells; endogenous in cells; host or cells: 293T (human embryonic kidney). In kind it is cell-based.
Description: Sequences: GFDVPD (SEQ ID NO:26); GFDAAD (SEQ ID NO:27); GNDVPD (SEQ ID NO:28); PQTVPD (SEQ ID NO:29); and DQIVPD (SEQ ID NO:30).
as §1

Data set [4] has as its target T2, Cop1. The note with it: reported value (Uljon et al.); read-out: binding affinity for Cop1; cited from earlier work.
For data set [5], the system named is SJSA-1 cells. The data set can be described thus: Cell viability of SJSA-1 cells (Cell Titer Glo). Type of data set: cell-based. The note with it: thalidomide degron chimeras with distinct linkers, FIG. 12. Here is the method:
Certain compositions bearing different linkers show no cellular activity (right). Linker1-5 are as depicted in FIG. 5.
A stapled peptide degron chimera modeled after the transactivation domain helix of p53 (ATSP-7041) coupled to a thalidomide degron was applied to cultured cancer cells (SJSA-1, SJSA-X) and MDM2 protein levels were monitored by western blot and compared to that in cells treated with ATSP-7041 alone. The experiment was repeated and cell viability was measured by Cell Titer Glo assay. […] In addition, each of the stapled peptide degron chimeras impaired cancer cell viability in a dose-responsive fashion (FIG. 12). The composition of the linker influenced the presence (FIG. 12, left) or absence (FIG. 12, right) of biological activity.
A general note: Cellular ATP, detected with luciferase, serves as a proxy for viable cell number.

T2 sequence (Q8NHY2 whole entry): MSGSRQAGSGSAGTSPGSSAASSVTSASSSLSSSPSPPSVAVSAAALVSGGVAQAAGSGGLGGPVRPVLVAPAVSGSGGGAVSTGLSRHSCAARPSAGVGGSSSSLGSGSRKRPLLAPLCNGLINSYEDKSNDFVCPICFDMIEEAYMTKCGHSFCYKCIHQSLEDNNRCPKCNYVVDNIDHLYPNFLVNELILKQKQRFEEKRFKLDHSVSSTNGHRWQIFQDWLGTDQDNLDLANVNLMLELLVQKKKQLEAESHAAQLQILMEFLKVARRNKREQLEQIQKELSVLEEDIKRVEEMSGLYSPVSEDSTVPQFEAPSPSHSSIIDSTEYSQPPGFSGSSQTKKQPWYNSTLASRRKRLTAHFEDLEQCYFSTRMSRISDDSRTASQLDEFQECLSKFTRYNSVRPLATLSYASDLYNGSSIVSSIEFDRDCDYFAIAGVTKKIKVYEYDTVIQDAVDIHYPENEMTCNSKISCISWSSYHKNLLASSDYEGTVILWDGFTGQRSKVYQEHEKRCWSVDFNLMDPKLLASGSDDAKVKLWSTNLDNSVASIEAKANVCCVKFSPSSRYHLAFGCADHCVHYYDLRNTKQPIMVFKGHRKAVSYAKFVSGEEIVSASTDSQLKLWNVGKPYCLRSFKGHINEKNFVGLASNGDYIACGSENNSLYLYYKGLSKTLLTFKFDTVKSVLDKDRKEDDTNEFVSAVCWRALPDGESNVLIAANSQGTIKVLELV

Turning to “#IWIAQELRXIGDXFNAYYARR% [BIM-C-terminal degron, stapled BIM BH3 peptide; #=N-term Ac; %=Lys-degron (thalidomide on C-terminal lysine side chain)]”, the “cellular MCL-1 protein level” value in data set [1] is on record as “time-dependent decrease in MCL-1 protein; also recorded: induces the degradation of MCL-1”.

As to DQIVPD, the “Cop1-mediated degradation of the MDM2 p60 chimera protein” value in data set [2] is “causes destruction of the p60 chimera protein by the Cop1 protein”. Further, the “binding of the Myc-tagged MDM2 p60 mutant construct to Cop1” value in data set [3] is recorded as “direct binding”.

Take DQIVPEY: in data set [4], the Kd is 250 ± 40 nM.

Regarding LTF8EYWAQLX%AA [5-L5], the “cell viability / cytotoxic activity” value in data set [5] is recorded as “most potent cytotoxic activity”.
